{"source": "paper PMC6135981", "about": "(iScience, 2018)", "key": {"3D intestinal tissue [1]": {"test_system": "3D intestinal tissue", "conditions": "3D intestine, apical to basal direction"}, "in vitro": {"experiment": "in vitro", "conditions": "human"}, "P-gp [2]": {"target": "T1, P-gp (Homo sapiens, UniProt P08183)", "T1 sequence (P08183 whole entry)": "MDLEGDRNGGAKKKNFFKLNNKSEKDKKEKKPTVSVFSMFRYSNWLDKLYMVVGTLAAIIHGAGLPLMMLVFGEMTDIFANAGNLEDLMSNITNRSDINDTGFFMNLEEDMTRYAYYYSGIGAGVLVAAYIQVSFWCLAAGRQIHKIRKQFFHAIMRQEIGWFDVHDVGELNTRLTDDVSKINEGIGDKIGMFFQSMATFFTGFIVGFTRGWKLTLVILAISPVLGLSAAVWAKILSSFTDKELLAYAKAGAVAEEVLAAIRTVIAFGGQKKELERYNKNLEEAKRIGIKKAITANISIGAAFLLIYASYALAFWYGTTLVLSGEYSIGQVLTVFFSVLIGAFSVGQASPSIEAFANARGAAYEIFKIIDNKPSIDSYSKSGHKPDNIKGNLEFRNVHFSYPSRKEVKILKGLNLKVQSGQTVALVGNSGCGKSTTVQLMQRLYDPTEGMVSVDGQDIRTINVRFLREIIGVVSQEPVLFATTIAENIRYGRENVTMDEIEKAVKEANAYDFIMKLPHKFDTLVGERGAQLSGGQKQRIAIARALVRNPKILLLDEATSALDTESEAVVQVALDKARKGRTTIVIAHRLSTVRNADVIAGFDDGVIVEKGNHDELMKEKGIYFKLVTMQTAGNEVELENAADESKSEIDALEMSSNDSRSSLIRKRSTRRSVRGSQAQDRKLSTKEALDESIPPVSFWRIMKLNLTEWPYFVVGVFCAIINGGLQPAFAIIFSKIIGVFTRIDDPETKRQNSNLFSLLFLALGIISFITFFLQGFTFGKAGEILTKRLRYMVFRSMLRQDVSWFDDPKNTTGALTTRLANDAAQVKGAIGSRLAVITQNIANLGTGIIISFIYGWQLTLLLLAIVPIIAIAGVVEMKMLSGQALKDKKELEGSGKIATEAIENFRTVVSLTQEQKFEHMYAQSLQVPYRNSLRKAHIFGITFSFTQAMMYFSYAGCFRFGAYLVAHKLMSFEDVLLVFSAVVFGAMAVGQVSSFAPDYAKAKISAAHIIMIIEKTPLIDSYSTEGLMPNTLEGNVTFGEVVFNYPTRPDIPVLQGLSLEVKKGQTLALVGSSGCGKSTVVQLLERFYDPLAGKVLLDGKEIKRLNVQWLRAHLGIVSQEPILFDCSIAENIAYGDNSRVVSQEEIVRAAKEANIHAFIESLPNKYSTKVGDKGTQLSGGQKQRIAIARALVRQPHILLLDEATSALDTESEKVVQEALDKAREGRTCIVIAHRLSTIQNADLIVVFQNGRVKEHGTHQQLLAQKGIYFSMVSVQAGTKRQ", "experiment": "in vitro", "conditions": "Efflux ratio (B to A)/(A to B)"}, "[3]": {"test_system": "prostaglandin E2 secretion", "experiment": "Prostaglandin E2 secretion, 3D intestinal tissue", "format": "cell-based, human", "conditions": "all doses, 24-hr treatment"}, "CYP2C9": {"target": "CYP2C9 (Homo sapiens, UniProt P11712)", "sequence (P11712 whole entry)": "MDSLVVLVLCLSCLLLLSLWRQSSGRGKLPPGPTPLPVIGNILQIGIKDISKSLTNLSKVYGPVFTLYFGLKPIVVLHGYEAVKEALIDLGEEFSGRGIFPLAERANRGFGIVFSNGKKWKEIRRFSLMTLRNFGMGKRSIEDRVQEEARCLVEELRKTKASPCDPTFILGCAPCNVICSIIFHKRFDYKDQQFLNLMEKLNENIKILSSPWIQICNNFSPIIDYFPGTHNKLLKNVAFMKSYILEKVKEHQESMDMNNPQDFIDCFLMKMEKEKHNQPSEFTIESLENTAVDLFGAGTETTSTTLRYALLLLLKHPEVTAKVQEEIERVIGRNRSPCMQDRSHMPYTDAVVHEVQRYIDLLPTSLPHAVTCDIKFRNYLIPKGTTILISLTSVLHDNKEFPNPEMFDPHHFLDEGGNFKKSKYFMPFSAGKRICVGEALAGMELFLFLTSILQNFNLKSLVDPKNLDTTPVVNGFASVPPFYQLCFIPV"}, "BCRP": {"target": "T2, BCRP (Homo sapiens, UniProt Q9UNQ0)", "T2 sequence (Q9UNQ0 1-655)": "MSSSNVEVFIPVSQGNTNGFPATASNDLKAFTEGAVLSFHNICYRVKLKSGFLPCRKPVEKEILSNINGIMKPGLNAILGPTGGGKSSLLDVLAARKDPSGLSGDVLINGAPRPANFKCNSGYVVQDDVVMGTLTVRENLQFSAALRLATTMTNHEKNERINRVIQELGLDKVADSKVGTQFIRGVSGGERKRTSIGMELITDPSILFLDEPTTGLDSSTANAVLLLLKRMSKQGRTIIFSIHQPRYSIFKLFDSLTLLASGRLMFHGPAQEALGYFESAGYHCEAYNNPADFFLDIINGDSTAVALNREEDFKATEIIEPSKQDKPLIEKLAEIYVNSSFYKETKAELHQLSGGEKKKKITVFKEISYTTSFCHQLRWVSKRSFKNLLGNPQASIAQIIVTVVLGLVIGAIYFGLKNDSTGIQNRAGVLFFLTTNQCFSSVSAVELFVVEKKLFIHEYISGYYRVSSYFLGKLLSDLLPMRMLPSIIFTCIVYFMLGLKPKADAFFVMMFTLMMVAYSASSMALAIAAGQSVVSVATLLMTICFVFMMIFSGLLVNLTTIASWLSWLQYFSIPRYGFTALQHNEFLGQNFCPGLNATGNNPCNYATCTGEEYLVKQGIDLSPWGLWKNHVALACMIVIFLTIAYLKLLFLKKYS", "experiment": "in vitro", "conditions": "Efflux ratio (B to A)/(A to B), 3D intestinal tissue, dual inhibition with Ko143 and zosuquidar"}, "P-gp [4]": {"target": "T1, P-gp", "conditions": "3D intestinal tissue"}, "2D Caco-2 monolayers": {"test_system": "2D Caco-2 monolayers", "conditions": "2D Caco-2 model"}, "3D Caco-2 tissues": {"test_system": "3D Caco-2 tissues", "conditions": "3D Caco-2 model"}, "3D intestinal tissue [5]": {"test_system": "3D intestinal tissue", "experiment": "LDH release after toxicant treatment, 3D intestinal tissue", "format": "cell-based, human", "conditions": "TNF-α for 24 hr"}, "3D intestinal tissue [6]": {"test_system": "3D intestinal tissue", "format": "cell-based, human", "conditions": "24-hr treatment"}, "[7]": {"test_system": "TNF-α/nuclear factor (NF)-κB pathway", "experiment": "Gene expression of TNF-α/NF-κB pathway targets, 3D intestinal tissue", "format": "cell-based, human", "conditions": "TNF-α for 24 hr"}}}
{"compound": "C[C@H]1O[C@@H](O[C@H]2[C@@H](O)C[C@H](O[C@H]3[C@@H](O)C[C@H](O[C@H]4CC[C@@]5(C)[C@H](CC[C@@H]6[C@@H]5C[C@@H](O)[C@]5(C)[C@@H](C7=CC(=O)OC7)CC[C@]65O)C4)O[C@@H]3C)O[C@@H]2C)C[C@H](O)[C@@H]1O", "note": "[digoxin]", "values": [{"measurement": "Permeability class", "setting": "3D intestinal tissue [1]", "value": "moderate"}, {"measurement": "Papp", "setting": "in vitro", "value": "8.53 ± 2.02", "unit": "×10⁻⁶ cm/s"}, {"measurement": "efflux ratio", "setting": "P-gp [2]", "value": "> 2"}]}
{"compound": "COc1ccc2c(c1)c(CC(=O)O)c(C)n2C(=O)c1ccc(Cl)cc1", "note": "[indomethacin]", "values": [{"measurement": "Prostaglandin E2 secretion", "setting": "[3]", "value": "inhibition of prostaglandin E2 secretion"}]}
{"compound": "CC(=O)N1CCN(c2ccc(OCC3COC(Cn4ccnc4)(c4ccc(Cl)cc4Cl)O3)cc2)CC1", "note": "(centres unmarked) [ketoconazole]", "values": [{"measurement": "Effect on CYP3A4 activity (midazolam metabolite formation)", "setting": "CYP3A4", "value": "specific inhibition"}]}
{"compound": "O=C1c2c(O)ccc(O)c2C(=O)c2c(NCCNCCO)ccc(NCCNCCO)c21", "note": "[mitoxantrone]", "values": [{"measurement": "Papp", "setting": "in vitro", "value": "0.2 ± 0.03", "unit": "×10⁻⁶ cm/s"}]}
{"compound": "CC(C)NCC(O)COc1cccc2ccccc12", "note": "(centres unmarked) [propranolol]", "values": [{"measurement": "Permeability class", "setting": "3D intestinal tissue [1]", "value": "high"}, {"measurement": "Papp", "setting": "in vitro", "value": "14.8 ± 1.96", "unit": "×10⁻⁶ cm/s"}]}
{"compound": "Nc1ccc(S(=O)(=O)Nc2ccnn2-c2ccccc2)cc1", "note": "[sulfaphenazole]", "values": [{"measurement": "Effect on CYP2C9 activity (luminogenic P450 substrate conversion)", "setting": "CYP2C9", "value": "significantly inhibited"}]}
{"compound": "CC[C@@]1(O)C(=O)OCc2c1cc1n(c2=O)Cc2cc3c(CN(C)C)c(O)ccc3nc2-1", "note": "[topotecan]", "values": [{"measurement": "Permeability class", "setting": "3D intestinal tissue [1]", "value": "moderate"}, {"measurement": "Papp", "setting": "in vitro", "value": "3.1 ± 0.63", "unit": "×10⁻⁶ cm/s"}, {"measurement": "efflux ratio", "setting": "BCRP", "value": 1.4}]}
{"compound": "O[C@@H](COc1cccc2ncccc12)CN1CCN([C@@H]2c3ccccc3[C@@H]3[C@H](c4ccccc42)C3(F)F)CC1", "note": "[zosuquidar]", "values": [{"measurement": "Effect on B to A transport of digoxin", "setting": "P-gp [4]", "value": "decreased the rate of B to A transport"}]}
{"compound": "lucifer yellow", "values": [{"measurement": "Papp", "setting": "3D intestinal tissue [1]", "value": "0.45 ± 1.5", "unit": "×10⁻⁶ cm/s"}, {"measurement": "Papp", "setting": "2D Caco-2 monolayers", "value": "0.46 ± 0.25", "unit": "×10⁻⁶ cm/s"}, {"measurement": "Papp", "setting": "3D Caco-2 tissues", "value": "1.05 ± 0.1", "unit": "×10⁻⁶ cm/s"}, {"measurement": "Permeability (Papp)", "setting": "IMF tissue alone", "value": "163 ± 29", "unit": "×10⁻⁶ cm/s"}]}
{"compound": "tumor necrosis factor alpha [TNF-α]", "values": [{"measurement": "LDH release", "setting": "3D intestinal tissue [5]", "value": "significant increase"}, {"measurement": "Epithelial morphology (histology)", "setting": "3D intestinal tissue [6]", "value": "altered the epithelial morphology"}, {"measurement": "Gene expression of IL-6, IL-8, CCL2, CXCL10, ICAM1, and TNF-α", "setting": "[7]", "value": "upregulated"}]}
